Key:
renal cancer (RXF 1220) = assay: RXF 1220 patient-derived tumor xenograft growth in nude mice; type: in vivo; details: BI-1 13.6 mg/kg i.p. twice weekly, Sunitinib 40 mg/kg once daily, Bevacizumab 15 mg/kg i.p. twice weekly
Source text: (§1) The goal of the present study was to assess the efficacy of BI-1 in combination with Bevacizumab, BIBF1120 or Sunitinib in models of human non small cell lung cancer (LXFE 211, LXFE 1422), colon cancer (CXF 243), mammary cancer (MAXF 401), ovarian cancer (OVXF 1353), pancreatic cancer (PAXF 546) and renal cancer (RXF 1220) in nude mice. All models were patient-derived tumor xenografts (PDX), which were transplanted from patients to nude mice and passaged subcutaneously. These models retain most of the characteristics of the parental patient tumors including histology.
(§2) BI-1 with the sample ID number D11B20V503 was used for this experiment and diluted with PBS. BIBF1120 with the batch chiffre 133562 was suspended in Natrosol 0.5% (Hydroxyethylcellulose Natrosol 250 HX, VWR). […]
(§3) Tumor fragments were obtained from tumor xenografts in serial passage in nude mice. […] Mice were monitored daily. […]
(§4) The doses of BI-1 and Bevacizumab were calculated to the average body weight of all mice on day 1 (28 g) and administered intraperitoneally twice weekly in a volume of 100 μl per mouse. […]
(§5) Tumor diameters were measured twice weekly with a caliper. The volume of each tumor [in mm^3] was calculated according to the formula “tumor volume=length*diameter^2*0.5.” To monitor side effects of treatment, mice were inspected daily for abnormalities and body weight was determined twice weekly. […]

[1] = tested on: human non small cell lung cancer (LXFE 211); assay: LXFE 211 patient-derived tumor xenograft growth in nude mice; type: in vivo; details: BI-1 13.6 mg/kg i.p. twice weekly, BIBF1120 50 mg/kg p.o. once daily, Bevacizumab 15 mg/kg i.p. twice weekly
Source text: as §1, §2, §3, §4, §5

[2] = Body weight losses and deaths in PDX tumor-bearing mice; set-up: species or system nude mice; details: mouse, in vivo
Method: Tumor diameters were measured twice weekly with a caliper. The volume of each tumor [in mm^3] was calculated according to the formula “tumor volume=length*diameter^2*0.5.” To monitor side effects of treatment, mice were inspected daily for abnormalities and body weight was determined twice weekly. Animals with tumor sizes exceeding 1.5 cm in diameter or 20% body weight loss were euthanized for ethical reasons.

[3] = tested on: ovarian cancer (OVXF 1353); assay: OVXF 1353 patient-derived tumor xenograft growth in nude mice; type: in vivo; details: BI-1 13.6 mg/kg i.p. twice weekly, BIBF1120 50 mg/kg p.o. once daily
Source text: as §1, §2, §3, §4, §5

[4] = tested on: human non-small cell lung cancer (NCI-H1975); assay: Subcutaneous NCI-H1975 xenograft tumor growth in nude mice; type: in vivo; details: day 14, 2.5 cycles; Bevacizumab 25 mg/kg i.p. twice weekly, BIBF 1120 50 mg/kg p.o. daily, BI-1 13.6 mg/kg i.p. twice weekly
Source text: The goal of the present study was to assess the efficacy of BI-1 in combination with Bevacizumab and BIBF 1120 in a model of human non small cell lung cancer (NCI-H1975) in nude mice.
• Model: Subcutaneous xenografts of the human non-small cell lung cancer (NCI-H1975) growing in nude mice
BI-1 with the sample ID number D11B20V503 was used for this experiment and diluted with PBS. BIBF 1120 with the batch chiffre 133562 was suspended in Natrosol 0.5% (Hydroxyethylcellulose Natrosol 250 HX, VWR).
Avastin® (Bevacizumab, 25 mg/ml) was purchased from Roche (Basel, Switzerland), (dissolved in 0.9% saline) was diluted with 0.9% saline.
Mice were 7 week-old female BomTac:NMRI-Foxn1nu purchased from Taconic, Denmark. After arrival, mice were allowed to adjust to ambient conditions for at least 5 days before they were used for the experiments. […]
as §4
Tumor diameters were measured three times a week (Monday, Wednesday and Friday) with a caliper. The volume of each tumor [in mm3] was calculated according to the formula “tumor volume=length*diameter2*π/6.” To monitor side effects of treatment, mice were inspected daily for abnormalities and body weight was determined three times a week (Monday, Wednesday and Friday). […]

colon cancer (CXF 243) = assay: CXF 243 patient-derived tumor xenograft growth in nude mice; type: in vivo; details: BI-1 13.6 mg/kg i.p. twice weekly, BIBF1120 50 mg/kg p.o. once daily, Bevacizumab 15 mg/kg i.p. twice weekly
Source text: as §1, §2, §3, §4, §5

[5] = tested on: mammary cancer (MAXF 401); assay: MAXF 401 patient-derived tumor xenograft growth in nude mice; type: in vivo; details: BI-1 13.6 mg/kg i.p. twice weekly, BIBF1120 50 mg/kg p.o. once daily, Bevacizumab 15 mg/kg i.p. twice weekly
Source text: as §1, §2, §3, §4, §5

[6] = tested on: pancreatic cancer (PAXF 546); assay: PAXF 546 patient-derived tumor xenograft growth in nude mice; type: in vivo; details: BI-1 13.6 mg/kg i.p. twice weekly, BIBF1120 50 mg/kg p.o. once daily, Bevacizumab 15 mg/kg i.p. twice weekly
Source text: as §1, §2, §3, §4, §5

[7] = tested on: human non small cell lung cancer (LXFE 1422); assay: LXFE 1422 patient-derived tumor xenograft growth in nude mice; type: in vivo; details: BI-1 13.6 mg/kg i.p. twice weekly, BIBF1120 50 mg/kg p.o. once daily, Bevacizumab 15 mg/kg i.p. twice weekly
Source text: as §1, §2, §3, §4, §5

Compound | TGI [%] (renal cancer (RXF 1220)) | TGI [%] [1] [%] | maximum median body weight loss [2] [%] | TGI [%] [3] [%] | median TGI [4] [%] | TGI [%] (colon cancer (CXF 243)) | TGI [%] [5] [%] | TGI [%] [6] [%] | TGI [%] [7] [%]
CCN(CC)CCNC(=O)c1c(C)[nH]c(/C=C2\C(=O)Nc3ccc(F)cc32)c1C [Sunitinib] | 62 | – | – | – | – | – | – | – | –
CCS(=O)(=O)O.COC(=O)c1ccc2c(c1)NC(=O)/C2=C(\Nc1ccc(N(C)C(=O)CN2CCN(C)CC2)cc1)c1ccccc1 [BIBF1120, 3-Z-[1-(4-(N-((4-methyl-piperazin-1-yl)-methylcarbonyl)-N-methyl-amino)-anilino)-1-phenyl-methylen]-6-methoxycarbonyl-2-indolinon-monoethanesulfonate] | – | 40 | 5.9 | 78 | 75 | 65 | 63 | 69 | 57
Bevacizumab: VEGF-neutralizing antibody A4.6.1, also called bevacizumab (Avastin®) | – | 37 | 9.1 | – | 82 | – | 68 | 59 | 63

Reference: patent US20140093498A1, “PHARMACEUTICAL COMBINATIONS COMPRISING DUAL ANGIOPOIETIN-2 / DLL4 BINDERS AND ANTI-VEGF-R AGENTS” (BOEHRINGER INGELHEIM INTERNATIONAL GMBH, priority 2012, published 2014)
